Measurements as given in the pKa sets of Baltruschat and Czodrowski (2020).
Where “and” joins values, the source holds several entries; their conditions need not be identical. Identical values can stand only once.

Details: acidic group

Row | SMILES | pKa
1 | O=C1COC(=O)C1Br (stereo not given) | 2.23
2 | O=c1oc2cc(O)ccc2cc1-c1nc2cc(Cl)ccc2o1 | 6.8
3 | Cn1nnc(CC(=O)O)n1 | 3.44
4 | Nc1ncnc2nc[nH]c12 | 9.74
5 | CC(C)=CC[C@@H]1C(=O)C(C(=O)CC(C)C)=C(O)[C@H]1O | 2.35
6 | Oc1ccc(/N=N/c2ccncc2)cc1 | 7.73
7 | Nc1nc(O)cc[nH+]1 | 4.01
8 | Oc1cccc2cncnc12 | 8.65
9 | Nc1c2ccccc2[nH+]c2cccc(O)c12 | 5.61
10 | O=C(CC(=O)c1ccccc1)Nc1cccc([N+](=O)[O-])c1 | 9.54
11 | Cc1ccc(/C=C/C(=O)O)cc1 | 4.56
12 | CN(C)S(=O)(=O)c1ccc(NS(=O)(=O)c2ccc(N)cc2)cc1 | 6.23
13 | O=[N+]([O-])c1ccccc1[Se]O | 10.5
14 | Oc1cccc2c1-c1ccccc1-2 | 8.64
15 | O=Cc1cc(Cl)cc([N+](=O)[O-])c1O | 4.46
16 | COC(=O)c1ccc(O)c([N+](=O)[O-])c1 | 5.4
17 | [NH3+]c1cccc(O[C@H]2O[C@@H](C(=O)O)[C@H](O)[C@@H](O)[C@@H]2O)c1 | 2.97
18 | O=C1C(=O)C(c2ccccc2)C1=O | 0.37
19 | COc1ccc(/C(=C\C(=O)c2ccc(S(=O)(=O)[O-])cc2)CC(=O)c2ccc(S(=O)(=O)[O-])cc2)cc1S(=O)(=O)[O-] | 10.7
20 | Nc1ccc(-c2ccc(/N=C/c3ccccc3O)cc2)cc1 | 11.1
21 | O=C(O)c1ccc(Br)c([N+](=O)[O-])c1 | 3.24
22 | O=c1[nH]ccc2nnnn12 | 6.95
23 | CC1CCCC(=O)C1=O (stereo not given) | 11.2
24 | CC(C[Si](C)(C)CCCCl)C(=O)O (stereo not given) | 5.05
25 | Cc1cc(C[NH+](C)C)c(O)c(C[NH+](C)C)c1 | 6.45

Row | SMILES | pKa
26 | CC(=O)c1cccc(=O)c(O)c1 | 6.16
27 | NCc1ccc(S(N)(=O)=O)cc1 | 10.2
28 | N#CCC#N | 11.2
29 | Oc1cccc2ccnnc12 | 8.25
30 | Oc1cc[nH+]cc1 | 4.04
31 | O=[N+]([O-])c1cc(Br)c(O)c(Br)c1 | 3.7
32 | Oc1ccc2nc3ccccc3cc2c1 | 8.81
33 | O=C(O)CSc1ccc([N+](=O)[O-])cc1 | 3.2
34 | CC(C)C1=CC2=CC[C@H]3[C@@](C)(CCC[C@]3(C)C(=O)O)[C@@H]2CC1 | 6.4
35 | CC(C)=CCC1C(=O)C(CC=C(C)C)(CC=C(C)C)C(O)(C(=O)O)C1=O (stereo not given) | 3.9
36 | O=C(O)/C=C\SC1CCCCC1 | 4.95
37 | CC(C)=CCC1=C(O)[C@](O)(CC=C(C)C)C(=O)C(C(=O)CC(C)C)=C1O | 4.22
38 | O/C(=C/c1ccccn1)c1ccccc1 | 12.2
39 | CC[NH+](CC)Cc1cc([N+](=O)[O-])ccc1O | 5.75
40 | CC(C)C(=O)CC(=O)C(C)C | 9.86
41 | O=C(O)C(c1ccc(-c2ccccc2)cc1)C(O)Cc1ccccc1 (stereo not given) | 4.29
42 | O=C(O)/C(I)=C\c1ccccc1 | 2.24
43 | Sc1ccc2ccccc2[nH+]1 | -1.44
44 | O=C(O)CCC(=O)NOCc1ccccc1 | 4.6
45 | O=C1Cc2c1cc([N+](=O)[O-])c(O)c2Br | 2.88
46 | Cc1cc(O)c(=O)ccc1Br | 6.6
47 | O=C([O-])c1cccc([N+](=O)[O-])c1O | 10.3
48 | COc1cc2c(cc1O)[C@H]1Cc3cc(OC)c(OC)cc3[C@H](C2)N1C | 9.8
49 | CCCCS(=O)O | 2.2
50 | CCC1C(=O)C(CC)C1=O (stereo not given) | 3.5

Row | SMILES | pKa
51 | CCCC[C@H]([NH3+])C(=O)O | 2.39
52 | CC(C)(C)OO | 12.8
53 | CCCCCCCCCc1c(O)n[nH]c1-c1ccccc1 | 10.6
54 | Cn1c(CO)nc2ccccc21 | 15.8
55 | CC(C)(S)[C@@H](C(=O)O)n1cc[nH+]c1Cc1ccccc1 | 2.81
56 | Nc1cc[nH+]c2c1ncn2CCOCP(=O)(O)O | 1.11
57 | O=C(O)[C@H](O)c1cccc([N+](=O)[O-])c1 | 3.03
58 | Oc1c(Br)cccc1Br | 6.6
59 | CCCCN(C(=O)c1ccc(O)cc1)c1ccc(/N=N/c2ccc3c(c2)OCCOCCOCCOCCOCCO3)cc1 | 9.12
60 | C[N+](C)(C)NC(=O)c1cccc([N+](=O)[O-])c1 | 3.16
61 | CCCCCOc1ccc(C(=O)O)cc1 | 4.49
62 | Oc1c(C(Nc2nc3ccccc3s2)c2ccccn2)ccc2cccnc12 (stereo not given) | 10.9
63 | O=C(O)c1cnc(Cl)s1 | 3
64 | Cc1cc(N)ccc1S(=O)(=O)Nc1nccs1 | 7.3
65 | Nc1ccc(S(=O)(=O)Nc2ccn(-c3ccccc3[N+](=O)[O-])n2)cc1 | 7
66 | Cn1cnc2cc(O)ccc21 | 9.85
67 | C(COCCc1nnn[nH]1)OCCc1nnn[n-]1 | 5.37
68 | CCCCC1(CC)C(=O)NC(=S)NC1=O | 7.37
69 | Cc1cc(C)cc(C(=O)O)c1 | 4.3
70 | CNc1ncnc2[nH]ncc12 | 10.6
71 | O=P([O-])(O)C([NH2+]Cc1cccnc1)c1ccccc1O (stereo not given) | 5.15
72 | CC(=O)Nc1ccc(S)cc1 | 6.08
73 | ONc1ccnc2ccccc12 | 6.76
74 | O=C(O)[C@@H]1O[C@H](Oc2ccc(-c3ccccc3)cc2)[C@@H](O)[C@H](O)[C@H]1O | 3.1
75 | Cc1c(-c2ccccc2)nn(-c2ccccc2)c1O | 7.8

Same assay, conditions: basic group

Row | SMILES | pKa
76 | CC1CNCC[NH2+]1 (stereo not given) | 5.46
77 | CN(C)c1ccc(/N=N/c2ccccn2)cc1 | 4.5
78 | CC1=C(CC(C)NCC(O)c2ccc(F)cc2)CCC1(C)C (stereo not given) | 8.51
79 | Nc1ncnc2nc[nH]c12 | 4.2
80 | Oc1ccc(/N=N/c2ccncc2)cc1 | 4.65
81 | COc1ccc(-c2nc3cnccc3n2C)c(OC)c1 | 6.16
82 | Nc1ccc(S(=O)(=O)Nc2cccc[nH+]2)cc1 | 1
83 | Oc1cccc2cncnc12 | 3.41
84 | CN(C)c1ccc(/C=N/c2ncc3[nH+]c[nH]c3n2)cc1 | 3.82
85 | CN1CCCCCCN(C)CCCCCC1 | 9.24
86 | NCCCCC#CC#CCCC(=O)[O-] | 10.5
87 | C[Si](C)(CN)O[Si](C)(C)CN | 10.3
88 | c1ccc2c(c1)CCCN2 | 4.96
89 | COCCN | 9.67
90 | Cc1cc(C)cc(C(=N)c2ccccc2)c1 | 6.82
91 | Nc1ccc(-c2ccc(/N=C/c3ccccc3O)cc2)cc1 | 7.68
92 | CCCC(=O)C1(c2cccc(O)c2)CCN(C)CC1 | 8.62
93 | CN[C@H]1C(C)[C@@H]1NC (stereo not given in full) | 9.03
94 | CSc1ccc(N)c([N+](=O)[O-])c1 | -0.28
95 | Cc1cccc(C)c1/C(=N/CCC[NH+](C)C)c1ccccc1 | 3.83
96 | C[C@H](N)[C@H](C)N | 9.84
97 | OC(CN1CCOCC1)CN1CCOCC1 | 6.98
98 | c1csc(C2CCCN2)c1 (stereo not given) | 9.35
99 | CC[C@H]1CN2CCc3cc(OC)c(OC)cc3[C@@H]2C[C@@H]1CC=O | 8.11

Row | SMILES | pKa
100 | CCCCCC/[NH+]=C/c1c(C)cnc(C)c1O | 3.39
101 | NCc1ccc(S(N)(=O)=O)cc1 | 8.35
102 | O=C([O-])CCCCCN1CCCCC1 | 10.5
103 | Oc1cccc2ccnnc12 | 2.72
104 | Cc1ccccc1/C(=N/CCC[NH+](C)C)c1ccc2ccccc2c1 | 4.54
105 | NCC(=O)NCCc1c[nH]cn1 | 8.04
106 | Cc1ccc(C2NCCS2)cc1 (stereo not given) | 5.35
107 | Oc1ccc2nc3ccccc3cc2c1 | 5.52
108 | Nc1ncc(Br)s1 | 3.61
109 | C[n+]1c([S-])nc([O-])c2ccccc21 | 9.23
110 | CC(C)N/C=[NH+]/c1ccc(-c2cncn2C)cc1 | 6.51
111 | Nc1cccc2[nH]c(Cc3ccccc3)nc12 | 8.6
112 | NCCCCCC(=O)[O-] | 10.8
113 | C1CCN(CCCN2CCCC2)C1 | 10
114 | Nc1cccc(-c2cccc(N)n2)n1 | 6.7
115 | NC1CC1 | 9.1
116 | NCCCCCCCC(=O)[O-] | 11
117 | CCc1ccnnc1C | 4.03
118 | C[Si](C)(C)OC1CN(Cc2ccccc2)C1 | 8.08
119 | CCCc1ccccc1N | 4.36
120 | CCC1CN1 (stereo not given) | 5.69
121 | O/C(=C/c1ccccn1)c1ccccc1 | 3.57
122 | CC[NH+](CC)CCCC(C)Nc1ccnc2cc(Br)ccc12 (stereo not given) | 8.1
123 | CC[NH+](CC)CCCC(C)Nc1cc[nH+]c2ccc(OC)cc12 (stereo not given) | -7.83

Row | SMILES | pKa
124 | [NH3+]c1ccc(-c2nc3ccccc3s2)cc1 | 0.1
125 | C=CCC(C)(CN(CC)CC)OC(=O)CC(C)C (stereo not given) | 8.1
126 | N#CC1CN2CCC1CC2 (stereo not given) | 7.85
127 | Cc1cnc2c(cc(C)c3cccnc32)c1C | 5.93
128 | Nc1ncnc2nn([C@@H]3C[C@@H](O)[C@H](CO)O3)nc12 | 3.1
129 | NCCBr | 8.5
130 | C[C@@H]1CC[C@H]2CC[C@H](C)N21 | 11.5
131 | CCN(N)CC | 7.63
132 | Cn1c(CO)nc2ccccc21 | 4.36
133 | C[C@@H](CN)c1ccccc1 | 9.94
134 | COc1ccc(OC)c2c1nc(CCl)n2C | 4.1
135 | CC(=O)Nc1ccc2cc3ccccc3nc2c1 | 5.6
136 | CC(C)(C)c1cccnc1 | 5.82
137 | Nc1cccc2cnccc12 | 5.59
138 | CC(C)(CN)C[NH3+] | 7.99
139 | c1cc(-c2cc[nH+]cc2)ccn1 | 3.17
140 | Nc1cc[nH+]c2c1ncn2CCOCP(=O)(O)O | 0.05
141 | CSc1nccc(C)n1 | 1.95
142 | OC[C@@H]1O[C@H](n2cnc3c([S-])ncnc32)[C@@H](O)[C@H]1O | 7.63
143 | CC(N)CCCc1ccc(O)cc1 (stereo not given) | 9.4
144 | N=C(N)N(c1ccccc1)c1ccccc1 | 10.4
145 | CC1=CCCN1C | 11.9
146 | CCOCCNc1cccc(OC)c1 | 3.67
147 | Cc1ccc(NCC[NH2+]c2ccc(C)cc2)cc1 | 2.7

Row | SMILES | pKa
148 | CCCCN(CCCC)c1nnc(-c2ccccc2)cc1C | 4.88
149 | Cn1ncc2c(NC(C)(C)CC(C)(C)C)ncnc21 | 3.96
150 | C=C(C)C(=O)NC(C)CN(C)C (stereo not given) | 8.51
151 | CN(C)CCNCCN(C)C | 9.59
152 | NCCCC[NH2+]CCCN | 9.86
153 | C/C(CCN(C)C)=N\[O-] | 11.2
154 | c1ccc2c(c1)CCNC2 | 9.48
155 | Cc1cccc(C)c1/C(=N/CCCN(C)C)c1ccccc1 | 8.7
156 | COc1cc(S(C)=O)ccc1-c1nc2ncccc2[nH]1 (stereo not given) | 3.91 and 3.89
157 | Cn1cnc2cc(O)ccc21 | 6.1
158 | c1ccc(-n2cccn2)[nH+]c1 | -4.8
159 | CNc1ncnc2[nH]ncc12 | 4.53
160 | CCC(=O)OCCN(C)C | 8.29
161 | O=P([O-])(O)C([NH2+]Cc1cccnc1)c1ccccc1O (stereo not given) | 3.14
162 | CC1=NCCCCN1 | 12.7
163 | Nc1cc2c(cc1Br)CCCC2 | 3.05
164 | CNCCN(C)CCN | 10.2
165 | CC(=O)n1ccnc1Cc1[nH]cc[nH+]1 | 1.93
166 | CC1(C)SCNC1C(=O)[O-] (stereo not given) | 6.34
167 | Cc1ncc(CO)c(C)c1OCc1ccccc1 | 5.52
168 | CC1(C)CC(=O)C=C(N2CCCC2)C1 | 3.15
169 | CCCC1N=C(N)N=C(Nc2ccc(SC)cc2)N1 (stereo not given) | 10.6
170 | CC(O)CNCCN (stereo not given) | 9.86
